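Tested at 5 concentrations; 48 h exposure; 96-well plates; endpoints linearly interpolated, else capped at highest concentration. GI50 is the concentration that inhibits growth by half.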 Activity calls are given as the source filed them. Cut-off read from the data, not from the text of the source: active = GI50 up to about 1.1 µM and inactive = higher.
Tests used:
Experiment in all cases: DTP human tumour cell line panel, 48 h
[1] = tested on: 786-0
[2] = tested on: A498
[3] = tested on: A549
[4] = tested on: ACHN
[5] = tested on: BT-549
[6] = tested on: CAKI-1
[7] = tested on: CCRF-CEM
[8] = tested on: COLO 205
[9] = tested on: DU-145
[10] = tested on: EKVX
[11] = tested on: HCC 2998
[12] = tested on: HCT-116
[13] = tested on: HCT-15
[14] = tested on: HL-60
[15] = tested on: HOP-62
[16] = tested on: HOP-92
[17] = tested on: HT-29
[18] = tested on: Hs-578T
[19] = tested on: IGROV-1
[20] = tested on: K562
[21] = tested on: KM12
[22] = tested on: LOX IMVI
[23] = tested on: M14
[24] = tested on: MCF7
[25] = tested on: MDA-MB-231
[26] = tested on: MDA-MB-435
[27] = tested on: MDA-N
[28] = tested on: MOLT-4
[29] = tested on: Malme-3M
[30] = tested on: NCI-H226
[31] = tested on: NCI-H23
[32] = tested on: NCI-H460
[33] = tested on: NCI-H522
[34] = tested on: NCI/ADR-RES
[35] = tested on: OVCAR-3
[36] = tested on: OVCAR-4
[37] = tested on: OVCAR-5
[38] = tested on: OVCAR-8
[39] = tested on: PC-3
[40] = tested on: RPMI-8226
[41] = tested on: RXF 393
[42] = tested on: SF-268
[43] = tested on: SF-295
[44] = tested on: SF-539
[45] = tested on: SK-MEL-28
[46] = tested on: SK-MEL-2
[47] = tested on: SK-MEL-5
[48] = tested on: SK-OV-3
[49] = tested on: SN12C
[50] = tested on: SNB-19
[51] = tested on: SNB-75
[52] = tested on: SR
[53] = tested on: SW-620
[54] = tested on: T47D
[55] = tested on: TK-10
[56] = tested on: U-251
[57] = tested on: UACC-257
[58] = tested on: UACC-62
[59] = tested on: UO-31

Measured: GI50

Cn1c2ccccc2n2c3ccccc3c(=O)c(C#N)c12
inactive: [1] 6.01 µM | [2] 18.3 µM | [3] 4.94 µM | [4] 2.91 µM | [5] 43.2 µM | [6] 3.85 µM | [7] 8.38 µM | [8] 9.2 µM | [9] 12.6 µM | [10] 18.7 µM | [11] 6.56 µM | [12] 4.19 µM | [14] 3.41 µM | [15] 19.2 µM | [16] 15.3 µM | [17] 4.53 µM | [18] 13.2 µM | [19] 6.01 µM | [20] 9.79 µM | [21] 12 µM | [22] 4.38 µM | [23] > 75.3 µM | [24] 10.1 µM | [25] 13.9 µM | [26] 71.8 µM | [27] > 48.5 µM | [28] 2.96 µM | [29] 4.27 µM | [30] 2.68 µM | [31] 8.24 µM | [32] 3.23 µM | [33] 4.29 µM | [34] 4.46 µM | [35] > 100 µM | [36] > 100 µM | [37] > 70 µM | [38] 3.96 µM | [39] 22.8 µM | [40] 3.44 µM | [41] 40.7 µM | [42] 10.4 µM | [43] 12.6 µM | [44] 13 µM | [45] > 83.4 µM | [46] 48.8 µM | [47] 2.27 µM | [48] 27.3 µM | [49] 17.9 µM | [50] 16.5 µM | [51] 15 µM | [52] 2.84 µM | [53] 4.62 µM | [54] 17.6 µM | [55] > 55 µM | [56] 12 µM | [57] 55.6 µM | [58] 8.11 µM | [59] 4.14 µM
6.62 µM: [13]

CC(NC(=O)OCc1ccccc1)NC(=O)OC(C)(C)C (stereo not drawn)
inactive: [1] > 100 µM | [2] > 100 µM | [3] > 100 µM | [4] > 100 µM | [5] > 100 µM | [6] > 100 µM | [7] > 100 µM | [8] > 100 µM | [9] > 100 µM | [10] > 100 µM | [11] > 100 µM | [12] > 100 µM | [14] > 100 µM | [15] > 100 µM | [16] > 100 µM | [17] > 100 µM | [18] > 100 µM | [19] > 100 µM | [20] > 100 µM | [21] > 100 µM | [22] > 100 µM | [23] > 100 µM | [24] > 100 µM | [25] > 100 µM | [26] > 100 µM | [27] > 100 µM | [28] 84.9 µM | [29] > 100 µM | [30] > 100 µM | [31] > 100 µM | [32] 73.6 µM | [33] > 100 µM | [34] > 100 µM | [35] > 100 µM | [36] > 100 µM | [37] > 100 µM | [38] > 100 µM | [39] > 100 µM | [40] 51.6 µM | [41] 1.24 µM | [42] > 100 µM | [43] > 100 µM | [44] > 100 µM | [45] > 100 µM | [46] > 100 µM | [47] > 100 µM | [48] > 100 µM | [49] > 100 µM | [50] > 100 µM | [51] > 100 µM | [52] > 100 µM | [53] > 100 µM | [54] > 100 µM | [55] > 100 µM | [56] > 100 µM | [57] > 100 µM | [58] > 100 µM | [59] > 100 µM
> 100 µM: [13]

— ChEMBL document CHEMBL1201862, “PubChem BioAssay data set” (2004)
